Results as given in ChEMBL document CHEMBL5291721, “A preclinical secondary pharmacology resource illuminates target-adverse drug reaction associations of marketed drugs” (Nat Commun, 2023).

How the values were obtained:
[1] = molecular target: T1, 5-hydroxytryptamine receptor 1A (Homo sapiens, UniProt P08908)
T1 sequence (P08908 whole entry): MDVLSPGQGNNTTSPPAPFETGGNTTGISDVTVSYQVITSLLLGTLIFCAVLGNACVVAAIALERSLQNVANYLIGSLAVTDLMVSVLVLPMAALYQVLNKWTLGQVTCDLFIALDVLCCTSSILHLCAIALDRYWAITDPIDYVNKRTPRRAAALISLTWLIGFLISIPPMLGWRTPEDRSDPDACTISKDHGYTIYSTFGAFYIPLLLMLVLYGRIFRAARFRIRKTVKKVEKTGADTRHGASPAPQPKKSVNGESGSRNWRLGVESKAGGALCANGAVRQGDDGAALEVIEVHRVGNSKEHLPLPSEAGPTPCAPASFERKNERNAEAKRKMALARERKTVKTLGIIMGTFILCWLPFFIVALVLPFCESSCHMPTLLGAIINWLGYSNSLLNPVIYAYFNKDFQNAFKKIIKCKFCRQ

[2] = molecular target: Neurotensin receptor type 1 (Homo sapiens, UniProt P30989)
[3] = molecular target: T2, Endothelin receptor type B (Homo sapiens, UniProt P24530)
T2 sequence (P24530 whole entry): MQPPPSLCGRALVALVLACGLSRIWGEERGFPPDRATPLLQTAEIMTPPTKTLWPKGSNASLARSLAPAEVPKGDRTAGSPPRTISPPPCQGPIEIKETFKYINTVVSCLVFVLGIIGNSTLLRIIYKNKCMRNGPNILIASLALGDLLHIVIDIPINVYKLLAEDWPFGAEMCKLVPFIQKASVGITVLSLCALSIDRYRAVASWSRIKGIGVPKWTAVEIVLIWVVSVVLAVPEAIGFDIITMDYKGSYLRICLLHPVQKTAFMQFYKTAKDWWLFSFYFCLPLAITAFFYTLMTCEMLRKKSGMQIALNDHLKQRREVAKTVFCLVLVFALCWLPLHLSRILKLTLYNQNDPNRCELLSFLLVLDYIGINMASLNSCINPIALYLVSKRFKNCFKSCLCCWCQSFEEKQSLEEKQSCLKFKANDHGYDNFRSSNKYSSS

[4] = molecular target: T3, Peroxisome proliferator-activated receptor gamma (Homo sapiens, UniProt P37231); type: functional
T3 sequence (P37231 whole entry): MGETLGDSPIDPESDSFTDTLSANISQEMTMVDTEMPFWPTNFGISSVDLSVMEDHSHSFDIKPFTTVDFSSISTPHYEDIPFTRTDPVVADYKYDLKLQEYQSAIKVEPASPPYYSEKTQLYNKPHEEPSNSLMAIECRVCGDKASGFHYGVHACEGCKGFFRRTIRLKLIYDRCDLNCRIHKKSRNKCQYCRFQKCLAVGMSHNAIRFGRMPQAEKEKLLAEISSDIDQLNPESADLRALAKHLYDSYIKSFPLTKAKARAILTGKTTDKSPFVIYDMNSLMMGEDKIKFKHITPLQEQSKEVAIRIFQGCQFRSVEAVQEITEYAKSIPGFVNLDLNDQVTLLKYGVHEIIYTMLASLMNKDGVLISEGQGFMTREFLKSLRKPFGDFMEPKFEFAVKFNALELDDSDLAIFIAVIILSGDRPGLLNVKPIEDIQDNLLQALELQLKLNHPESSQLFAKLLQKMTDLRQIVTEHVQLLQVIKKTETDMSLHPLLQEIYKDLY

[5] = molecular target: T4, Gastric inhibitory polypeptide receptor (Homo sapiens, UniProt P48546)
T4 sequence (P48546 whole entry): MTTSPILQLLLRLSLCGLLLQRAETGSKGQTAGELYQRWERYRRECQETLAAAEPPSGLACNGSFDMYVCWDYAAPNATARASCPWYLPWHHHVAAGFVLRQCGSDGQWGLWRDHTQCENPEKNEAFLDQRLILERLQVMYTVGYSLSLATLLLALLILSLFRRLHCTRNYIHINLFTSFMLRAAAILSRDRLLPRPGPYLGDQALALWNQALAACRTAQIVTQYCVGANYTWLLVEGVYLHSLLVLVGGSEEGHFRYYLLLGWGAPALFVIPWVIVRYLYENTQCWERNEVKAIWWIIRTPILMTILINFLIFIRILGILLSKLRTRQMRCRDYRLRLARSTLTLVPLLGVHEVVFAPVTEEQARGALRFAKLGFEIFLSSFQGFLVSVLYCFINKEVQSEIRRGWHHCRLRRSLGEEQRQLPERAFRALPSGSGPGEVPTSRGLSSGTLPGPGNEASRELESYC

[6] = molecular target: Histamine H1 receptor (Homo sapiens, UniProt P35367)
[7] = molecular target: Muscarinic acetylcholine receptor M3 (Homo sapiens, UniProt P20309)
[8] = molecular target: T5, Glucocorticoid receptor (Homo sapiens, UniProt P04150)
T5 sequence (P04150 whole entry): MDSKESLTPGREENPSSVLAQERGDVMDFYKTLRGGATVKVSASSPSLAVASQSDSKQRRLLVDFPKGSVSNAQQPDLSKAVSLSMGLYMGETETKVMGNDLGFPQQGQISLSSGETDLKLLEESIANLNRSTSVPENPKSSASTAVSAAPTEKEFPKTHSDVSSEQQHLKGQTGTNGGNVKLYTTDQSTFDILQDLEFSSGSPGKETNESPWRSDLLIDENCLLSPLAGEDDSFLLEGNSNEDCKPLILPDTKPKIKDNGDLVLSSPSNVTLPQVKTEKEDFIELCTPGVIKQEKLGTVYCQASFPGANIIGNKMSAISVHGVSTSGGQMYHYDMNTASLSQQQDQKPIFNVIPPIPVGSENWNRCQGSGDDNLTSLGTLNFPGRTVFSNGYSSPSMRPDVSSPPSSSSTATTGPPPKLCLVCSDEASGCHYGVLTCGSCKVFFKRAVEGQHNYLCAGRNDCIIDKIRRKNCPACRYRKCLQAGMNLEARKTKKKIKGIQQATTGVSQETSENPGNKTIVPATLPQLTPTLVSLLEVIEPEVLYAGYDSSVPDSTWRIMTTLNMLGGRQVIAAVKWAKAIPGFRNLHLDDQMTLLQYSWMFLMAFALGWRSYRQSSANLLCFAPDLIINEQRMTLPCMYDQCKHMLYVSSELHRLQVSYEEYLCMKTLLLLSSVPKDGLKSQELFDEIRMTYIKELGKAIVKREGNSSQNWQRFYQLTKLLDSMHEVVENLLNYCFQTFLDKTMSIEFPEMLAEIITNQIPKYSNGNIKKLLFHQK
Further: assay procedure not described here.

Chain of Neurotensin receptor type 1 (P30989 whole entry): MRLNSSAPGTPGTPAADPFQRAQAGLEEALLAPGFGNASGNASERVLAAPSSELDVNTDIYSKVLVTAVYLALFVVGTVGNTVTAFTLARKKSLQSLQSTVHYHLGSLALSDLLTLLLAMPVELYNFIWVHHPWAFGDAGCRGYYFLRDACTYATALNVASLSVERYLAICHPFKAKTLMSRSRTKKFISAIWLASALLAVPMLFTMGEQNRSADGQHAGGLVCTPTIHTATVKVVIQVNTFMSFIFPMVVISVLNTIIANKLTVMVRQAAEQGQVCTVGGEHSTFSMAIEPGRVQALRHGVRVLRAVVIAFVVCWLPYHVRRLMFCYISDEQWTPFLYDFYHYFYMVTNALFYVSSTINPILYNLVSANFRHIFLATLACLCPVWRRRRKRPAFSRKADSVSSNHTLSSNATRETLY
Chain of Muscarinic acetylcholine receptor M3 (P20309 whole entry): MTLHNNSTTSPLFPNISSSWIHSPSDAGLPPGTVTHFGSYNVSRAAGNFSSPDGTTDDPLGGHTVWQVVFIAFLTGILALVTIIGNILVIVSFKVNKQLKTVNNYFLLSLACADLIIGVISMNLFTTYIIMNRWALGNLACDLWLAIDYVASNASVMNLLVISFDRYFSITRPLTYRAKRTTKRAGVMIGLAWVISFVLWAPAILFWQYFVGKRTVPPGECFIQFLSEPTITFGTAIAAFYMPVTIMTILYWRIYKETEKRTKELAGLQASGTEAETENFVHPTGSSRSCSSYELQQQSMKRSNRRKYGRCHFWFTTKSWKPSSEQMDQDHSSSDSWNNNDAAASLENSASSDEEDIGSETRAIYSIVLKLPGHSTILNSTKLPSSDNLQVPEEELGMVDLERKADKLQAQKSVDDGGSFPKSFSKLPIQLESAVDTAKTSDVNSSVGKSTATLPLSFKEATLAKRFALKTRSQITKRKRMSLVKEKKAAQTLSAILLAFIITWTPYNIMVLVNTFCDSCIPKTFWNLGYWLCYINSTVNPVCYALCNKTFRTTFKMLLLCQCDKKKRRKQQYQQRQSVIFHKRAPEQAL
Chain of Histamine H1 receptor (P35367 whole entry): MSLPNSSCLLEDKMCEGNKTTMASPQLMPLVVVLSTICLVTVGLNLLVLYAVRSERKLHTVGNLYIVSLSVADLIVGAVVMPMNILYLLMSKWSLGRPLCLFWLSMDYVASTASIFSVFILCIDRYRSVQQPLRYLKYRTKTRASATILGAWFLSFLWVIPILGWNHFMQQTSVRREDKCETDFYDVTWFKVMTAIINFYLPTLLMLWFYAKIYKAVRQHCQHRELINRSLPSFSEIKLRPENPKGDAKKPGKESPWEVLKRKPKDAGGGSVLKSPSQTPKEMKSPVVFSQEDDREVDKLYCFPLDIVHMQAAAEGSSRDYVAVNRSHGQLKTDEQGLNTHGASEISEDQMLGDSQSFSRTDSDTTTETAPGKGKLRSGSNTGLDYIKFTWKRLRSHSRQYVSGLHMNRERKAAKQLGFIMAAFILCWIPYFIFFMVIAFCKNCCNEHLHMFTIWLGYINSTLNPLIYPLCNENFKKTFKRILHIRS

Row | SMILES | AC50 [1] [µM] | AC50 [2] [µM] | AC50 [3] [µM] | AC50 [4] [µM] | AC50 [5] [µM] | AC50 [6] [µM] | AC50 [7] [µM] | AC50 [8] [µM]
1 | CCCc1nc2c(C)cc(-c3nc4ccccc4n3C)cc2n1Cc1ccc(-c2ccccc2C(=O)O)cc1 | > 10 | > 30 | > 30 | > 30 | > 30 | > 30 | > 30 | > 30
2 | CCOc1nc2cccc(C(=O)O)c2n1Cc1ccc(-c2ccccc2-c2nnn[nH]2)cc1 | > 10 | > 30 | > 30 | > 30 | > 30 |  |  | > 30
